One data set has as its system mouse leukemia L1210. The data set can be described thus: Anti-tumor activity: life prolonging effect in mice transplanted intraperitoneally with mouse leukemia L1210 (T/C%). The note with it: for Anti-tumor activity (T/C%): i.p. day 1, 5 and 9. Type of data set: in vivo. As for the experimental part: 5×10^5 cells of mouse leukemia L1210 were transplanted intraperitoneally to a group of six female CDP1 mice (7 weeks old, body weight 17-19 g). A test substance was administered intraperitoneally on day 1, 5 and 9, and its life prolonging effect was observed. In a case of the administration of a test substance as an acid addition salt, it was dissolved in purified water. The total administration amount was 1.56-400 mg/kg. The anti-tumor activity was expressed by the value (T/C%) in which the ratio of the mean survival days of a drug administered group (T) to the mean survival days of a not administered group (C) is multiplied by 100.

A short description of data set [1]: Stability test in water at each pH (phosphate buffer, HPLC). The following applies: for Amount of the compound in test solution: room temperature (about 26° C.). Type of data set: physicochemical. As for the experimental part:
1) Preparation of calibration curve:
1.05 mg of the compound 1 and 1.10 mg of the compound A (Note) were measured, dissolved in acetonitrile 10 ml to give a standard solution. 20 μl of the standard solution was tested by HPLC method (procedure condition 1). The peak area of the compound 1 and the compound A (Note), which is obtained from the chromatograph of the standard solution is measured by an automatic integration method, and the obtained area is plotted against an amount of the compound 1 and the compound A (2.1 μg and 2.2 μg) by 20 μl to prepare a calibration curve.
[HPLC method, procedure condition 1]
Column: Inertsil ODS-3 (5-250), 40 deg.
Mobile phase: 0.01 M potassium dihydrogenphosphate-acetonitrile (3:1)
Detection: UV absorptiometer (254 nm)
About 1 mg (×3) of the compound 1 were measured, dissolved adding a phosphate buffer 10 ml of pH 10.0, 7.0 or 5.4, stirred at room temperature (about 26° C.) to make a test solution. As to each 20 μl of the test solution at the time of dissolution, 3 hr later and 24 hr later, the tests were carried out by the HPLC method (procedure condition 1). The amounts of the compound 1 were measured from the obtained area. The amounts of the compound A in each pH were measured.
The amounts (μg/ml) of the compound 1 and the compound A at the time of dissolution, 3 hr later and 24 hr later in each pH are shown in Table 7.

Data set [2] is described as follows: Solubility of each hydrochloride in purified water. The class given is physicochemical. As for the experimental part: A corresponding camptothecin-21-(2-dimethylamino) ethylamide derivative (100-200 mg) was added with an aqueous 0.1 N HCl solution (1.05 eq.) and dissolved, if necessary, further by adding purified water. The solution was filtered using MILLEX-GV ([…] Filter Unit), and the filtrate was lyophilized to give the desired hydrochloride.
Table 1: Solubility of each hydrochloride in purified water

≈ marks a conversion by molar mass, not a printed value.

On to `CCc1c2c(nc3ccccc13)-c1cc([C@@](O)(CC)C(=O)NCCN(C)C)c(COC(=O)NC)c(=O)n1C2` [Compound 1, 7-Ethyl-17-methylcarbamoyloxycamptothecin-21-(2-dimethylamino)ethylamide], for which the “Anti-tumor activity (T/C%)” value with mouse leukemia L1210 (Table 2, total dose 3.13 mg/kg) is 97%; with mouse leukemia L1210 (Table 2, total dose 6.25 mg/kg) it was 97%; in the data set on mouse leukemia L1210 (Table 2, total dose 12.5 mg/kg), 95%; in the data set with mouse leukemia L1210 (Table 2, total dose 25 mg/kg) it was 97%; with mouse leukemia L1210 (Table 2, total dose 50 mg/kg) it was 97%; in the data set on mouse leukemia L1210 (Table 2, total dose 100 mg/kg), 139%. Also, the “Anti-tumor activity (T/C%)” value with mouse leukemia L1210 (Table 2, total dose 200 mg/kg) is 145%. For the same molecule, the “Amount of the compound in test solution” value in data set [1] (pH 5.4, 3 hr later) turned out to be 118 µg/mL; in data set [1] (pH 5.4, 24 hr later) it was 118 µg/mL; in data set [1] (pH 5.4, at the time of dissolution) it was 118 µg/mL; in data set [1] (pH 7.0, 3 hr later), 105 µg/mL; in data set [1] (pH 7.0, 24 hr later), 105 µg/mL; in data set [1] (pH 7.0, at the time of dissolution), 105 µg/mL. Also, the “Amount of the compound in test solution” value in data set [1] (pH 10.0, 3 hr later) came out at 106 µg/mL; in data set [1] (pH 10.0, 24 hr later), 97 µg/mL; in data set [1] (pH 10.0, at the time of dissolution), 109 µg/mL. Moreover, the “Stability in aqueous solution (in words)” value in data set [1] (pH 7.0 and 5.4, room temperature) is given as “stably present at room temperature”. In data set [1] (phosphate buffer, pH 10.0, after 24 hr, read-out: remained in the aqueous solution), the remaining at 24 h worked out at 89%. Besides, the solubility (usually the dissolved amount per volume that the medium holds) in data set [2] is ≥ 50 mg/mL.

As to `CCc1c2c(nc3ccccc13)-c1cc([C@@](O)(CC)C(=O)NCCN(C)C)c(COC(=O)Nc3ccc(F)cc3)c(=O)n1C2` [Compound 10, 7-Ethyl-17-(4-fluorophenylcarbamoyloxy)-camptothecin-21-(2-dimethylamino)ethylamide], the “Anti-tumor activity (T/C%)” value in the data set on mouse leukemia L1210 (Table 4, total dose 3.13 mg/kg) came out at 115%; in the data set on mouse leukemia L1210 (Table 4, total dose 6.25 mg/kg), 118%; in the data set with mouse leukemia L1210 (Table 4, total dose 12.5 mg/kg), 123%; with mouse leukemia L1210 (Table 4, total dose 25 mg/kg), 136%; in the data set on mouse leukemia L1210 (Table 4, total dose 50 mg/kg) it was 174%; in the data set with mouse leukemia L1210 (Table 4, total dose 100 mg/kg), 221%. In addition, in the data set with mouse leukemia L1210 (Table 4, total dose 200 mg/kg), the “Anti-tumor activity (T/C%)” value came out at 310%. Besides, the solubility in data set [2] is ~7 mg/mL (≈ 11.6 mM).

Regarding `CCc1c2c(nc3ccccc13)-c1cc([C@@](O)(CC)C(=O)NCCN(C)C)c(COC(=O)N(C)C)c(=O)n1C2` [Compound 14, 17-Dimethylcarbamoyloxy-7-ethylcamptothecin-21-(2-dimethylamino)ethylamide], the “Anti-tumor activity (T/C%)” value with mouse leukemia L1210 (Table 4, total dose 3.13 mg/kg) was 118%; in the data set on mouse leukemia L1210 (Table 4, total dose 6.25 mg/kg), 121%; with mouse leukemia L1210 (Table 4, total dose 12.5 mg/kg) it was 126%; in the data set with mouse leukemia L1210 (Table 4, total dose 25 mg/kg), 136%; in the data set with mouse leukemia L1210 (Table 4, total dose 50 mg/kg), 149%; in the data set with mouse leukemia L1210 (Table 4, total dose 100 mg/kg), 218%. The “Anti-tumor activity (T/C%)” value with mouse leukemia L1210 (Table 4, total dose 200 mg/kg) is 523%. Also, in the data set on mouse leukemia L1210 (Table 4, total dose 200 mg/kg, group of six mice), the “Anti-tumor activity: fraction in parentheses after T/C% (meaning not given)” value was 4/6. Also, the solubility in data set [2] is ~50 mg/mL (≈ 93.3 mM).

The values above are taken from patent US6310210A, “Camptothecin derivatives” (Kabushiki Kaisha Yakult Honsha, priority 1997, dated 2001).
